In patent US10864179B2, “Histone deacetylase inhibitors for the use in the treatment of drug resistant melanoma” (STICHTING HET NEDERLANDS KANKER INSTITUUT-ANTONI VAN …, priority 2015, dated 2020):
“Also recorded” adds a separate entry of the source.

What was measured:
A375R cells = experiment: Long-term colony formation assay, vemurafenib-resistant A375R cells; conditions: for sensitivity of cells in proliferation assay, HDACi panel: Vorinostat 1 uM, 01994 4 uM, AR2 0.5 uM, Pracinostat 0.25 uM, Quisinostat 25 nM, 8 day
Method: Long-term colony formation assay of melanoma (A375 and A375R clone) cells. […] Cells were fixed and stained at day 12. […] Long-term colony formation assay of melanoma Mel888 parental and vemurafenib-resistant Mel888R cells (three different clones Mel888RC-A, B and C) were seeded at the same cell density in 6-well plates and cultured in presence of vorinostat (1 microM) and/or vemurafenib (2 microM). Cells were fixed and stained at day 10. […] Long-term colony formation assay of melanoma A375 parental and double-resistant cells seeded in 12-well plates and treated with 2 microM vemurafenib and/or 0.5 microM CDX101 (CDX). Medium and drugs were refreshed every 2-3 days. Cells were fixed and stained on day 10.
Medium and drugs were refreshed every 2-3 days. Cells were fixed and stained on day 10
Long-term colony formation assay of A375 parental and MAPKi resistant A375R, A375DR cells treated sulfasalazine and vorinostat. Medium and drugs were refreshed every 2-3 days. Cells were fixed and stained on day 10.
The A375 melanoma cell line was obtained from ATCC. MEL888 were gifts from D. Peeper (Amsterdam, The Netherlands). WM266-4 and Colo741 cell line were provided by R. Marais (Manchester, UK). These cells are BRAF mutated melanoma. All the cell lines were cultured in DMEM medium supplemented with 10% FBS, 1% penicillin/streptomycin and 2 mM I-glutamine. Vemurafenib-resistant A375 and MEL888 cells were generated by long term (at least 3 months) culturing with 2 microM vemurafenib. Dabrafenib-Trametinib combination resistant A375 cells were generated by long term (at least 3 months) culturing with 0.25 microM Dabrafenib and 10 nM Trametinib (MEK inhibitor). Vemurafenib-resistant ex-vivo clones were isolated from immunodeficient BalbC mice, which were long-term treated with PLX4720-chow (50 mg/kg). All the in vitro cell lines have been STR profiled.
Cells were seeded into 6-well plates (5*10^4˜1*10^5 cells per well) or 12-well plates (4*10^4 cells per well) and cultured both in the absence and presence of drugs as indicated.

A375 melanoma cells [1] = experiment: Long-term colony formation assay, A375 cells; assay type: cell-based, human; conditions: for effect of HDACi on the anti-proliferative effect of vemurafenib: HDACi together with vemurafenib; for proliferation in long-term colony formation assay: drug(s) without HDACi/BRAFi partner; for effect of HDACi on dabrafenib, trametinib and their combination: FIG. 3
Text: (§1) FIG. 1. BRAF inhibition is antagonized by HDAC inhibition in melanoma. A). […] The cells were fixed and stained at day 14. B). Short-term proliferation assay of melanoma (A375) cells. […] Error bars represent s.d. of biological triplicates. C,D). HDAC inhibitors and vemurafenib have antagonistic effects on MAPK pathway and HDAC inhibitors can rescue cells from vemurafenib-induced apoptosis. A375 were pre-treated with 1 microM vorinostat and 1 microM entinostat for 48 hrs and then treated with the combination of HDAC inhibitor (1 microM) and vemurafenib (1 microM) for additional 24 hrs. The levels of p-RB, p-MEK, MEK, cleaved PARP (cl. PARP) and ac-H3 were detected by western blot. β-actin served as the loading control.
(§2) FIG. 2. Other HDACi also confer resistance to vemurafenib. […] B).
(§3) FIG. 3. HDACi confers resistance to the combination of a MEK and a BRAF inhibitor in melanoma. A,B,C).

[2] = tested on: MEL888RC-A, B and C cells; experiment: Long-term colony formation assay, vemurafenib-resistant MEL888 clones; assay type: cell-based; conditions: vorinostat 1 microM, CXD101 0.5 microM
Text: FIG. 5. […] Cells were fixed and stained on day 8.
(§4) These cells are BRAF mutated melanoma.

A375DR cells = experiment: Long-term colony formation assay, dabrafenib/trametinib double-resistant A375DR cells; assay type: cell-based, human
Text: as §4

[3] = tested on: NRAS-mutant melanoma patients; conditions: phase II; cited from earlier work
SK-MEL-147R cells = experiment: Long-term colony formation assay, MEKi-resistant SK-MEL-147R cells; assay type: cell-based, human
Method: (a). Long-term colony formation assay of SK-MEL-147 and MEKi-resistant SK-MEL-147R cells cultured in the presence of 1 μM vorinostat and/or 100 nM Trametinib.
(b). Long-term colony formation assay of SK-MEL-147 and SK-MEL-147R cells cultured in the presence of indicated concentrations of vorinostat and/or 5 mM NAC.
(§5) The A375, SK-Mel-147 and SK-Mel-2 melanoma cell lines were obtained from ATCC. […] Trametinib resistant SK-mel-147 and SK-mel-2 were generated by long term culturing with 25 nM (first month), 50 nM (second month) and 100 nM (third month) trametinib.
(§6) For full details, see ref. (Huang et al., 2009).

SK-MEL-2R cells = experiment: Long-term colony formation assay, MEKi-resistant SK-MEL-2R cells; assay type: cell-based, human; conditions: 5 mM NAC
Method: (i). Long-term colony formation assay of SK-MEL-2 and MEKi-resistant SK-MEL-2R cells cultured in the presence of 1 μM vorinostat and/or 100 nM Trametinib.
(j) Long-term colony formation assay of SK-MEL-2 and SK-MEL-2R cells cultured in the presence of indicated concentrations of vorinostat and/or 5 mM NAC.
as §5, §6

[4] = tested on: A375 melanoma tumor xenografts; experiment: A375 mouse xenografts; assay type: in vivo, BalbC immunodeficient nude mice; conditions: for tumor volume of PLX4720-resistant tumors after randomization: PLX4720 300 mg/kg in chow and/or vorinostat 100 mg/kg i.p.
Method: FIG. 7. HDACi is effective in treatment of BRAF inhibitor resistant melanoma in vivo. A,B). […] A375 melanoma cells were grown as tumor xenografts in BalbC immunodeficient nude mice. After tumor establishment (150-200 mm3), mice were treated with (A). vehicle, PLX4720 (40 mg/kg supplemented in the chow). Upon development of BRAF inhibitor resistance, mice receiving PLX4720 were randomized in four arms (B) receiving: vehicle, PLX4720 (300 mg/kg supplemented in the chow), Vorinostat (100 mg/kg i.p.) or PLX4720 (300 mg/kg supplemented in the chow) plus Vorinostat (100 mg/kg i.p.). C). Resistance to vemurafenib in A375 cells is mediated through reactivation of MAP kinase pathway. Biochemical responses of A375-resistant ex vivo clones and A375 parental cell line treated with 2 microM vemurafenib were documented by western blot analysis. Cells were harvested at 24 hrs after drug treatment. […] HSP90 served as the loading control. […].
A375 melanoma cells (2×10^6 cells per mouse) were injected subcutaneously into the right posterior flanks of 7-week-old immunodeficient BalbC or NMRI nude female mice (6 mice per group; Janvier Laboratories, The Netherlands). Tumor formation was monitored twice a week, and tumor volume based on caliper measurements was calculated by the modified ellipsoidal formula (tumor volume=½(length×width2)). When tumors reached a volume of approximately 0.3 cm^3, mice were randomized into treatment arms. PLX4720 (Plexxikon) was formulated in the chow by Research Diets dosed at 300 mg/kg and vorinostat was formulated in DMSO/saline solution, and it was dosed at 100 mg per kg daily by intraperitoneal injection. When resistance to PLX4720 arises in the group treated with PLX4720, mice bearing tumors of approximately 0.3 cm^3 were again randomized into the treatment arms with the same drug dosages. Animal experiments were approved by the Animal Ethics Committee of the Netherlands Cancer Institute and performed in accordance with institutional, national and European guidelines for Animal Care and Use.
To investigate whether HDACi treatment is a suitable therapy for MPAK pathway inhibitor resistant melanoma, e.g. BRAF inhibitor resistant melanoma, we injected parental vemurafenib sensitive A375 cells into a cohort of 24 BalbC immunodeficient nude mice. After tumors had reached an average volume of 150-200 mm3, we started treatment with vemurafenib by feeding the animals chow supplemented with 40 mg/kg of PLX4720. […] After that period, tumors began to increase in size, indicative of the development of drug resistance (FIG. 7A). When drug resistant tumors in the mice had reached a size of 800 mm3, mice were randomized to four cohorts that were treated either with:
A) no drug; B) PLX4270; C) PLX4270 and vorinostat; D) Vorinostat.

[5] = tested on: 4397A, 4397B, 4393R and 4393L cells; experiment: Long-term colony formation assay, ex vivo PLX4720-resistant A375 clones; assay type: cell-based, human; conditions: four cell lines with in vivo acquired PLX4720 resistance
Text: FIG. 8. In vitro and ex vivo BRAF inhibitor-resistant clones are hypersensitive to HDACi.
We explanted four PLX4720 resistant tumors from mice immediately after acquisition of PLX4720 resistance in vivo and continued to culture these cells in vitro in the presence of BRAF inhibitor. These cells were designated 4397A, 4397B, 4393R and 4393L.

Colo741 melanoma cells = experiment: Long-term colony formation assay, Colo741 cells; assay type: cell-based; conditions: for effect of HDACi on dabrafenib, trametinib and their combination: FIG. 3
Text: as §2, §3

p-MEK in A375 cells = experiment: Western blot of MAPK pathway and apoptosis markers, A375 cells; assay type: cell-based, human; conditions: single drug
Text: as §1
FIG. 7. HDACi is effective in treatment of BRAF inhibitor resistant melanoma in vivo. A,B). […] A375 melanoma cells were grown as tumor xenografts in BalbC immunodeficient nude mice. After tumor establishment (150-200 mm3), mice were treated with (A). vehicle, PLX4720 (40 mg/kg supplemented in the chow). Upon development of BRAF inhibitor resistance, mice receiving PLX4720 were randomized in four arms (B) receiving: vehicle, PLX4720 (300 mg/kg supplemented in the chow), Vorinostat (100 mg/kg i.p.) or PLX4720 (300 mg/kg supplemented in the chow) plus Vorinostat (100 mg/kg i.p.). C). Resistance to vemurafenib in A375 cells is mediated through reactivation of MAP kinase pathway. […]

A375 melanoma cells [6] = experiment: Short-term proliferation assay (IncuCyte), A375 cells; assay type: cell-based, human; conditions: each drug alone, 1 microM
Text: as §1

A375 cells = experiment: Staining of beta-galactosidase activity; assay type: cell-based, human
Text: β-galactosidase activity in cells was detected using Histochemical Staining Kit (CS0030-1KT) from Sigma-Aldrich. The detection was applied according to the manufacturer's instructions.

[7] = tested on: p-MEK in WM2664 melanoma cells; experiment: Western blot of p-MEK, WM2664 cells; assay type: cell-based; conditions: single drug
Method: Cells were seeded in medium containing 10% fetal bovine serum (FBS) for indicated time, and then washed with PBS and lysed with RIPA buffer supplemented with protease inhibitor (cOmplete, Roche) and Phosphatase Inhibitor Cocktails II and III (Sigma). All lysates were freshly prepared and processed with Novex NuPAGE Gel Electrophoresis Systems (Invitrogen).

XCT (SLC7A11) mRNA = experiment: qRT-PCR of SLC7A11 in SK-MEL-147 and SK-MEL-147R cells; conditions: 72 hours vorinostat treatment
Method: The relative mRNA levels were detected by qRT-PCR analysis after 72 hours vorinostat treatment. Error bars represent s.d. of measurement replicates (n=3, *** p<0.001, Student's t-test).
RNA isolation from cell lines harvested with TRIzol reagent (Invitrogen) according to the manufacturer's instruction. cDNA synthesis was performed with Maxima Universal First Strand cDNA Synthesis Kit (# K1661, Thermo scientific) according to manufacturer's instruction.

Structure (SMILES): CC(C)[C@H](C(=O)Nc1ccc(C(=O)NO)cc1)c1ccccc1 [AR2]
- sensitivity of cells in proliferation assay, HDACi panel (A375R cells; A375R cells): very sensitive

Structure (SMILES): Cc1nn(C)cc1CN1CCC(c2ccc(C(=O)Nc3ccccc3N)cc2)CC1 [CXD101]
- effect of HDACi on the anti-proliferative effect of vemurafenib (A375 melanoma cells [1]): conferred resistance to vemurafenib
- proliferation in long-term colony formation assay (A375 melanoma cells [1]): mildly anti-proliferative
- sensitivity of cells in long-term colony formation assay [2]: hypersensitive
- sensitivity of cells in long-term colony formation assay (A375DR cells; 0.5 microM CDX101): very sensitive
- sensitivity of cells in long-term colony formation assay (A375DR cells; 0.5 microM CDX101, listed as CDX101): hypersensitive

Structure (SMILES): Cn1cnc2c(F)c(Nc3ccc(Br)cc3F)c(C(=O)NOCCO)cc21 [MEK162]
- patients with objective responses [3]: 20%
- patients with stable disease [3]: 43%

Structure (SMILES): CC(=O)N[C@@H](CS)C(=O)O [NAC, N-acetyl-L-cysteine]
- effect on the toxic effect of vorinostat (SK-MEL-147R cells; SK-MEL-147R cells, 5 mM NAC): rescued
- effect on the toxic effects of vorinostat (SK-MEL-2R cells): countered, at least in part

Structure (SMILES): CCCS(=O)(=O)Nc1ccc(F)c(C(=O)c2c[nH]c3ncc(Cl)cc23)c1F [PLX4720]
- tumor volume of PLX4720-resistant tumors after randomization [4]: continued tumor volume increase
- period of tumor growth suppression before resistance ([4]; chow supplemented with 40 mg/kg of PLX4720): around 3 months
- tumor growth ([4]; chow supplemented with 40 mg/kg of PLX4720, start at 150-200 mm3): significant suppression of tumor growth

Structure (SMILES): CCCCc1nc2cc(/C=C/C(=O)NO)ccc2n1CCN(CC)CC [Pracinostat]
- sensitivity of cells in proliferation assay, HDACi panel (A375R cells; A375R cells): very sensitive

Structure (SMILES): Cn1cc(CNCC2CCN(c3ncc(C(=O)NO)cn3)CC2)c2ccccc21 [Quisinostat]
- sensitivity of cells in proliferation assay, HDACi panel (A375R cells; A375R cells): very sensitive

Structure (SMILES): O=C(/C=C/c1cccc(S(=O)(=O)Nc2ccccc2)c1)NO [belinostat]
- effect of HDACi on the anti-proliferative effect of vemurafenib (A375 melanoma cells [1]): conferred resistance to vemurafenib
- proliferation in long-term colony formation assay (A375 melanoma cells [1]): mildly anti-proliferative
- sensitivity of cells to HDACi [5]: very sensitive

Structure (SMILES): CC(C)(C)c1nc(-c2cccc(NS(=O)(=O)c3c(F)cccc3F)c2F)c(-c2ccnc(N)n2)s1 [dabrafenib]
- proliferation in long-term colony formation assay (A375 melanoma cells [1]): effective in limiting proliferation
- proliferation in long-term colony formation assay (Colo741 melanoma cells; MAPK pathway inhibitor(s) without HDACi): effective in limiting proliferation

Structure (SMILES): Nc1ccccc1NC(=O)c1ccc(CNC(=O)OCc2cccnc2)cc1 [entinostat]
- effect of HDACi on dabrafenib, trametinib and their combination (A375 melanoma cells [1]): able to confer resistance to these drugs
- p-MEK levels (p-MEK in A375 cells): increases p-MEK levels
- effect of HDACi on dabrafenib, trametinib and their combination (Colo741 melanoma cells): able to confer resistance to these drugs
- sensitivity of cells in long-term colony formation assay [2]: hypersensitive

Structure (SMILES): O=C(O)c1cc(/N=N/c2ccc(S(=O)(=O)Nc3ccccn3)cc2)ccc1O [sulfasalazine]
- toxicity in long-term colony formation assay (A375DR cells; sulfasalazine 0.2 to 0.4 mM): toxic
- toxicity in long-term colony formation assay (A375R cells; A375R cells, sulfasalazine 0.2 to 0.4 mM): toxic

Structure (SMILES): O=C(CCCCCCC(=O)Nc1ccccc1)NO [vorinostat]
- effect of HDACi on dabrafenib, trametinib and their combination (A375 melanoma cells [1]): able to confer resistance to these drugs
- effect of HDACi on the anti-proliferative effect of vemurafenib (A375 melanoma cells [1]): almost completely negated the anti-proliferative effects of vemurafenib
- proliferation in long-term colony formation assay (A375 melanoma cells [1]): inhibition of proliferation
- cell proliferation (cell confluence, IncuCyte) (A375 melanoma cells [6]): restricted cell proliferation
- acidic beta-galactosidase (senescence marker) (A375 cells): induction of acidic beta-galactosidase
- p-MEK levels [7]: increase in phospho-MEK (p-MEK)
- effect of HDACi on dabrafenib, trametinib and their combination (Colo741 melanoma cells): able to confer resistance to these drugs
- effect of HDACi on the anti-proliferative effect of vemurafenib (Colo741 melanoma cells; HDACi together with vemurafenib): conferred resistance to vemurafenib
- tumor volume of PLX4720-resistant tumors after randomization [4]: rapid decline in tumor volume; also recorded: complete disappearance of the tumors after two months; also recorded: suppress melanoma growth
- sensitivity of cells to HDACi [5]: very sensitive
- sensitivity of cells in long-term colony formation assay (SK-MEL-147R cells; SK-MEL-147R versus parental SK-MEL-147, 1 μM vorinostat, 100 nM Trametinib): acquired significant sensitivity
- XCT (SLC7A11) mRNA expression (XCT (SLC7A11) mRNA): reduced XCT (also known as SLC7A11) mRNA expression; also recorded: suppressed SLC7A11 expression
- sensitivity of cells in long-term colony formation assay (A375R cells; A375R cells versus parental A375, vorinostat 1 microM, vemurafenib 2 microM): far more sensitive to vorinostat than parental A375 cells; also recorded: massive inhibition of proliferation; also recorded: hypersensitive
- sensitivity of cells in proliferation assay, HDACi panel (A375R cells; A375R cells): very sensitive
